The source made the active and inactive calls. No cut-off for these calls is given here.

Drawing on ChEMBL document CHEMBL4118021, “Studies of TAK1-centered polypharmacology with novel covalent TAK1 inhibitors” (Bioorg Med Chem, 2017), this text covers Activity, IC50 and inhibition for 3 compounds.

Assay [1] addresses Endothelial differentiation-related factor 1 (Homo sapiens) (UniProt O60869). Kind of assay: Binding affinity to EDF1 in human NCI-H23 cells at 1 uM by mass spectrometry based pull down assay. Type of assay: cell-based.
The target of another assay is Plectin (Homo sapiens) (UniProt Q15149). Kind of assay: Binding affinity to PLEC in human NCI-H23 cells at 1 uM by mass spectrometry based pull down assay. Type of assay: cell-based.
Assay [2] addresses Ribosomal protein S6 kinase alpha-1 (Homo sapiens) (UniProt Q15418). Put plainly: Binding affinity to RPS6KA1 in human NCI-H23 cells at 1 uM by mass spectrometry based pull down assay. It is filed as cell-based.
In assay [3] the target is T1, Serine/threonine-protein kinase Nek9 (Homo sapiens) (UniProt Q8TD19).
T1 sequence (whole entry): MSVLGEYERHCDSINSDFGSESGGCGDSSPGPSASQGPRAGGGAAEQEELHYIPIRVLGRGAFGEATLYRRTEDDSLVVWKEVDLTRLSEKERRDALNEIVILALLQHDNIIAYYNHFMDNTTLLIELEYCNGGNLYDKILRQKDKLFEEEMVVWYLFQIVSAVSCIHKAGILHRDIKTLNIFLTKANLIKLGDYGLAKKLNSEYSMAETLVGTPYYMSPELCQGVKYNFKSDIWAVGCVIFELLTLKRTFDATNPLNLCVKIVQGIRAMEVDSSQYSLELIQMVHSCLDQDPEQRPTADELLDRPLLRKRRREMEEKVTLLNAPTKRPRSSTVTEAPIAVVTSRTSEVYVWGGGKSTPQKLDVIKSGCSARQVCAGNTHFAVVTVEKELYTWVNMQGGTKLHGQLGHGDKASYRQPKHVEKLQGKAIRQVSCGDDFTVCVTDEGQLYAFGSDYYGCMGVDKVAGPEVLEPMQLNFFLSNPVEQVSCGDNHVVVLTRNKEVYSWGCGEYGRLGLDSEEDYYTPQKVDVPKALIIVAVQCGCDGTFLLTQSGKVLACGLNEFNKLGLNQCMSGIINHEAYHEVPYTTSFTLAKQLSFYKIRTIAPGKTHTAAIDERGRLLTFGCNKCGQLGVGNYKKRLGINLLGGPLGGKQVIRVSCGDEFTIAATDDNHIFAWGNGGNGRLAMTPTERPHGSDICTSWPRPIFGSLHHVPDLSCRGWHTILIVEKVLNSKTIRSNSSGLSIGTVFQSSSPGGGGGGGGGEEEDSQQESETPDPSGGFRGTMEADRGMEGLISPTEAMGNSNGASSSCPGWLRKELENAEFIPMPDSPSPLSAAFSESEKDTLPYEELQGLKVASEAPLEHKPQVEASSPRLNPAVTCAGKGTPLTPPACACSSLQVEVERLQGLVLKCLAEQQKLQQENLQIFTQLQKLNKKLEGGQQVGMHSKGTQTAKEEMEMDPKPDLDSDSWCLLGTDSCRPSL
Put plainly: Binding affinity to NEK9 in human NCI-H23 cells at 1 uM by mass spectrometry based pull down assay. It is filed as cell-based.

Assay [4] has as its target Aurora kinase B (Homo sapiens) (UniProt Q96GD4). Put plainly: Binding affinity to AURKB in human NCI-H23 cells at 1 uM by mass spectrometry based pull down assay. It is filed as cell-based.
The target in assay [5] is TGF-beta-activated kinase 1 and MAP3K7-binding protein 2 (Homo sapiens) (UniProt Q9NYJ8). Kind of assay: Binding affinity to TAB2 in human NCI-H23 cells at 1 uM by mass spectrometry based pull down assay. Type of assay: cell-based.
The target of assay [6] is F-actin-capping protein subunit beta (Homo sapiens) (UniProt P47756). Put plainly: Binding affinity to CAPZB in human NCI-H358 cells at 1 uM by mass spectrometry based pull down assay. It is filed as cell-based.
F-actin-capping protein subunit beta (Homo sapiens), sequence (P47756 whole entry): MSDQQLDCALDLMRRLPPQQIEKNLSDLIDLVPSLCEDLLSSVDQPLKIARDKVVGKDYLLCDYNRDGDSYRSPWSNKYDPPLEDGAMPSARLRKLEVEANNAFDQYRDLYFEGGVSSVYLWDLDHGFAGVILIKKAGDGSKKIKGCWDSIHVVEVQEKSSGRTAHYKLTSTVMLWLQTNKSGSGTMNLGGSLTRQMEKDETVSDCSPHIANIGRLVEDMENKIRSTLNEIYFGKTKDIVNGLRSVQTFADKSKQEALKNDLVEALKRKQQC
In assay [7] the target is Glutamine--fructose-6-phosphate aminotransferase [isomerizing] 1 (Homo sapiens) (UniProt Q06210). Kind of assay: Binding affinity to GFPT1 in human NCI-H358 cells at 1 uM by mass spectrometry based pull down assay. Type of assay: cell-based.
The target in assay [8] is 80S Ribosome (Homo sapiens) (UniProt P08865+P42677+P62753+P15880+P23396+P61247+P62701+P22090+P46782+P62081+P62241+P46781+P46783+P62280+P25398+P62277+P62263+P62841+P62244+P62249+P08708+P62269+P39019+P60866+P63220+P62266+P62847+P62851+P62854+P62979+P62857+P62273+P62861+P39023+P36578+P46777+Q02878+P18124+P62424+P62917+P32969+P27635+P62906+P62913+P30050+P26373+P40429+P50914+P61313+P18621+Q07020+Q02543+P84098+P46778+P35268+P62829+P62750+P83731+P61254+P61353+P46776+P46779+P47914+P62888+P62899+P62910+P49207+P42766+P18077+Q9Y3U8+P83881+P61927+P61513+P63173+P62891+P62945+P05388+P05386). Kind of assay: Binding affinity to RPS11 in human NCI-H358 cells at 1 uM by mass spectrometry based pull down assay. Type of assay: cell-based.

The target of assay [9] is Cyclin-dependent kinase 5 (Homo sapiens) (UniProt Q00535). Kind of assay: Binding affinity to CDK5 in human NCI-H358 cells at 1 uM by mass spectrometry based pull down assay. Type of assay: cell-based.
The target in assay [10] is Thymidine kinase, cytosolic (Homo sapiens) (UniProt P04183). Kind of assay: Binding affinity to TK1 in human NCI-H358 cells at 1 uM by mass spectrometry based pull down assay. Type of assay: cell-based.
Thymidine kinase, cytosolic (Homo sapiens), sequence (P04183 whole entry): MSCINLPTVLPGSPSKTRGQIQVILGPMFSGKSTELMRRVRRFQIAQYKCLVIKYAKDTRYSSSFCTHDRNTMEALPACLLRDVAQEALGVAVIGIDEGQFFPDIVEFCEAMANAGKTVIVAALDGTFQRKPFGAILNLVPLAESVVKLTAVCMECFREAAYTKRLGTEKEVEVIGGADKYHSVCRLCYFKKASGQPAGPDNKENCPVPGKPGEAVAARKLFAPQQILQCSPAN
Assay [11] addresses Splicing factor 3B subunit 3 (Homo sapiens) (UniProt Q15393). Kind of assay: Binding affinity to SF3B3 in human NCI-H358 cells at 1 uM by mass spectrometry based pull down assay. Type of assay: cell-based.
Assay [12] deals with General vesicular transport factor p115 (Homo sapiens) (UniProt O60763). Kind of assay: Binding affinity to USO1 in human NCI-H358 cells at 1 uM by mass spectrometry based pull down assay. Type of assay: cell-based.
General vesicular transport factor p115 (Homo sapiens), sequence (O60763 whole entry): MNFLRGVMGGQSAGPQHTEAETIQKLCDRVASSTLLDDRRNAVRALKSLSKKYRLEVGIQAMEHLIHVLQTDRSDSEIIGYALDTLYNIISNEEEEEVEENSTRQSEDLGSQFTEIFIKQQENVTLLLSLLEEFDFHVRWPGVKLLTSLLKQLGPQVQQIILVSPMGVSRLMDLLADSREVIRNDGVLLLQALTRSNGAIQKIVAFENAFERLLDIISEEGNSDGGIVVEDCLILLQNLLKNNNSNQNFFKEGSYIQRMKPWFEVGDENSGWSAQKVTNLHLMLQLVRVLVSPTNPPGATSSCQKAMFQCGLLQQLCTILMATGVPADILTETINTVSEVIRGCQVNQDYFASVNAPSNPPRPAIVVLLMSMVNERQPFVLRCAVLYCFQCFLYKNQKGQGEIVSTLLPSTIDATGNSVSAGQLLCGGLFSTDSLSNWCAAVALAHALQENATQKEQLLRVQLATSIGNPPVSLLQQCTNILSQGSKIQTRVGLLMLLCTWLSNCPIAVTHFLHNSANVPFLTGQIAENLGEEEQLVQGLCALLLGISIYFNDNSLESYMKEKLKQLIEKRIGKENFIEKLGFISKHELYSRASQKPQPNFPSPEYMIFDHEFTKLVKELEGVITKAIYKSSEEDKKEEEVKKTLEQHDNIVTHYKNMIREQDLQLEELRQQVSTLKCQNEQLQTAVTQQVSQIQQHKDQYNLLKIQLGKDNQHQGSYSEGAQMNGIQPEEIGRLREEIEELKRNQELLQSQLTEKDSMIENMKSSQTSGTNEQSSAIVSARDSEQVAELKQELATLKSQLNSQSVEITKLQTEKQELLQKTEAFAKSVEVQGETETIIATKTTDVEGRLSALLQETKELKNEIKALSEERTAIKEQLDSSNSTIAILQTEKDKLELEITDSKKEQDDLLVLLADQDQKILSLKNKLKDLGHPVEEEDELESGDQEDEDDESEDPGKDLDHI
In assay [13] the target is Phosphoglycerate kinase 1 (Homo sapiens) (UniProt P00558). Kind of assay: Binding affinity to PGK1 in human NCI-H358 cells at 1 uM by mass spectrometry based pull down assay. It is filed as cell-based.
Phosphoglycerate kinase 1 (Homo sapiens), sequence (P00558 whole entry): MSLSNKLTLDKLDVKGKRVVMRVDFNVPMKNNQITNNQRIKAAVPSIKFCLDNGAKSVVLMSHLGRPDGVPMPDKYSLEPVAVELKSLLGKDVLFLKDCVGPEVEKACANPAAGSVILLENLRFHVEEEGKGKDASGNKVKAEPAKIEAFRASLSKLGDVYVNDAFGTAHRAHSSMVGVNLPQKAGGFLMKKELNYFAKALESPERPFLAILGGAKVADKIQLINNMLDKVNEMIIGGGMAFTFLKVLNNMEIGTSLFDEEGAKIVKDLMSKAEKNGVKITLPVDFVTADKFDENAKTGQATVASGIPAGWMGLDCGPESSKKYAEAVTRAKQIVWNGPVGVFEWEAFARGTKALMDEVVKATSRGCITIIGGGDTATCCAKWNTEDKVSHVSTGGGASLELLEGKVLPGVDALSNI
The next assay concerns the target Moesin (Homo sapiens) (UniProt P26038). Kind of assay: Binding affinity to MSN in human NCI-H358 cells at 1 uM by mass spectrometry based pull down assay. It is filed as cell-based.
Assay [14] concerns the target Elongation factor 1-gamma (Homo sapiens) (UniProt P26641). Kind of assay: Binding affinity to EEF1G in human NCI-H358 cells at 1 uM by mass spectrometry based pull down assay. Type of assay: cell-based.
The target in assay [15] is ADP-ribosylation factor 5 (Homo sapiens) (UniProt P84085). Kind of assay: Binding affinity to ARF5 in human NCI-H358 cells at 1 uM by mass spectrometry based pull down assay. Type of assay: cell-based.
Assay [16] deals with Receptor-type tyrosine-protein kinase FLT3 (Homo sapiens, UniProt P36888). Kind of assay: Inhibition of FLT3 (unknown origin).
Receptor-type tyrosine-protein kinase FLT3, sequence (P36888 whole entry, the tested form may be a part): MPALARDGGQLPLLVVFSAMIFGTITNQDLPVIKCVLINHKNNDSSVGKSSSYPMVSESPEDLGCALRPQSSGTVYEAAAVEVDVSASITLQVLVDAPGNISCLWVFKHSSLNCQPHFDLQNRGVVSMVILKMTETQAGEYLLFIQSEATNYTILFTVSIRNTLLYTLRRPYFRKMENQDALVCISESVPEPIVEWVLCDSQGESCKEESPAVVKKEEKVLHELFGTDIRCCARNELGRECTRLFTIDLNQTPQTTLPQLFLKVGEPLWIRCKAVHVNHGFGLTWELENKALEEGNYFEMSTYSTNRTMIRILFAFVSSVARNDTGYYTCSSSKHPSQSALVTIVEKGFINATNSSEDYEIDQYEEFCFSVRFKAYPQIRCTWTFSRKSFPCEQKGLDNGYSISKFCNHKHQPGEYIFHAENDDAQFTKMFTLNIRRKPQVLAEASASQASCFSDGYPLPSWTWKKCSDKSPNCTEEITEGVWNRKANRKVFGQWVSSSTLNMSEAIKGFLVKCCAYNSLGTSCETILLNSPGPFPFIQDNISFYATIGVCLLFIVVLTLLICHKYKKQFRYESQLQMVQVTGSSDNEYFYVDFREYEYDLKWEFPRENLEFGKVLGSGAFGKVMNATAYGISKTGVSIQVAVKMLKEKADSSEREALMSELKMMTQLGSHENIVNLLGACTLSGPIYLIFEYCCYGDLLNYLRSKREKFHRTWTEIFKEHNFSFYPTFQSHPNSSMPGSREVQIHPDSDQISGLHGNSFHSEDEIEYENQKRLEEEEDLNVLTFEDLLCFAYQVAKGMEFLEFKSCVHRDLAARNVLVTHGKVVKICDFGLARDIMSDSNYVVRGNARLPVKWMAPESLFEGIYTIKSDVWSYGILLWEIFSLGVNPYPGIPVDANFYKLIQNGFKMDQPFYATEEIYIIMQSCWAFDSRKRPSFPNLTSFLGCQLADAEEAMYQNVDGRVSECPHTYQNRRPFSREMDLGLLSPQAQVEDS
The target of assay [17] is Tyrosine-protein kinase JAK1 (Homo sapiens) (UniProt P23458). Put plainly: Inhibition of JAK1 domain2 in human SKCO1 cells at 1 uM after 4 hrs using biotin labeled IGDFGLTKAIETDKEYYTVK probe by mass-spectrometric analysis relative to control. It is filed as cell-based.

Splicing factor 3B subunit 3 (Homo sapiens), sequence (Q15393 whole entry): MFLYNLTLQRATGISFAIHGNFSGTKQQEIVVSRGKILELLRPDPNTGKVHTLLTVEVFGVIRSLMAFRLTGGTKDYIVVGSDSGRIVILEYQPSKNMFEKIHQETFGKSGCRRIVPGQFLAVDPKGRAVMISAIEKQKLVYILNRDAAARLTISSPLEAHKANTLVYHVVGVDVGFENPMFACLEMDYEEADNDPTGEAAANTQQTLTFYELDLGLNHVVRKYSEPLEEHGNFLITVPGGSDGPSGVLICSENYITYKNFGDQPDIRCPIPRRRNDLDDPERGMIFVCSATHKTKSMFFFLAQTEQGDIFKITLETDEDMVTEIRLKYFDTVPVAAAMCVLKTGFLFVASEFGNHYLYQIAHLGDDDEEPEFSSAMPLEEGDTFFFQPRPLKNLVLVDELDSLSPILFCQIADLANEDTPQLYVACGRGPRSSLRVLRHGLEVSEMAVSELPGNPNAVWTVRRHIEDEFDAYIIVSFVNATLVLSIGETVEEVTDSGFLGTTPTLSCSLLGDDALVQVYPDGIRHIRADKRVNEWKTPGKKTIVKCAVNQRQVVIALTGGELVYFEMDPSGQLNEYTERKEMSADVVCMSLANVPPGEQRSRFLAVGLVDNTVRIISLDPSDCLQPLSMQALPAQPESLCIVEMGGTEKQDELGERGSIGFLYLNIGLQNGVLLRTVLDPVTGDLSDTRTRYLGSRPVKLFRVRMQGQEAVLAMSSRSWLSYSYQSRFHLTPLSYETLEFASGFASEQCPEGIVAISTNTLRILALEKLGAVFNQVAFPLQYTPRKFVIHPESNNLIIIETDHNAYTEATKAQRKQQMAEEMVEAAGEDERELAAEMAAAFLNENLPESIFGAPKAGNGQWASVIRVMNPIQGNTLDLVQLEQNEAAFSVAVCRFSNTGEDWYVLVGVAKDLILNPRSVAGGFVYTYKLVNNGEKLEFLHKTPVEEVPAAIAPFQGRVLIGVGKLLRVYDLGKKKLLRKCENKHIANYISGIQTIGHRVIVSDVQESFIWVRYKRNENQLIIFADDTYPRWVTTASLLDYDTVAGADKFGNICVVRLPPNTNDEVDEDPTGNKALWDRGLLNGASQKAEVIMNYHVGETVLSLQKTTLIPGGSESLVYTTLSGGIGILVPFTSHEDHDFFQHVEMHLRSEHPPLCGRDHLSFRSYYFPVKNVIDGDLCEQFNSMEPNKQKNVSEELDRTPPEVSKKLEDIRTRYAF
Elongation factor 1-gamma (Homo sapiens), sequence (P26641 whole entry): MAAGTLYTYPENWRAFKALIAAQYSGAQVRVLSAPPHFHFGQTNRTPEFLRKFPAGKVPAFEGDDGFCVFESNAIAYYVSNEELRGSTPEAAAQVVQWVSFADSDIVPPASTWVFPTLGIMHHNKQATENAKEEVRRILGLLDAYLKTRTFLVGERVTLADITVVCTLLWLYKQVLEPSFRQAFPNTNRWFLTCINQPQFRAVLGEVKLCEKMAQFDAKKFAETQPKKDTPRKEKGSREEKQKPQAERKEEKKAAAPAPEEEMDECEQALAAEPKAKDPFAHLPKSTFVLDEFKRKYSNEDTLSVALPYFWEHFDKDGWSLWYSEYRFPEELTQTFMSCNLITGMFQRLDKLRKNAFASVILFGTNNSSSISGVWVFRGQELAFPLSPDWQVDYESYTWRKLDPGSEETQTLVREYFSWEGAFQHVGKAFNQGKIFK
Aurora kinase B (Homo sapiens), sequence (Q96GD4 whole entry): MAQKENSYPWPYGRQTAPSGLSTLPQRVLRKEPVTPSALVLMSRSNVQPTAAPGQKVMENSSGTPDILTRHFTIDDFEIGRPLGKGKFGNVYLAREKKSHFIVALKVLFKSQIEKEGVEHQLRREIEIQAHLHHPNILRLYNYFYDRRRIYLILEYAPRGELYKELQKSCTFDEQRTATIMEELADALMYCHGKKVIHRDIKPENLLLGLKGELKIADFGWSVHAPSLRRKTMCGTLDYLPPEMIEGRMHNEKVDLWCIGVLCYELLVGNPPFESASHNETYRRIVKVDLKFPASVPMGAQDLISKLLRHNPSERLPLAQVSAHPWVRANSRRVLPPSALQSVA
Endothelial differentiation-related factor 1 (Homo sapiens), sequence (O60869 whole entry): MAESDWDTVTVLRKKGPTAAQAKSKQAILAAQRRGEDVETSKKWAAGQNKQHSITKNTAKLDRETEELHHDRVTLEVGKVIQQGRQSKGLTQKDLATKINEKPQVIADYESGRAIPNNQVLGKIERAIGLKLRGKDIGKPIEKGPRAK

Consider `C=CC(=O)Nc1ccccc1Nc1nc(Nc2ccc(N3CCN(CCOCCOCCOCCNC(=O)CCCC[C@@H]4SC[C@@H]5NC(=O)N[C@@H]54)CC3)cc2)ncc1Cl`, for which the result (in assay [1]; on Plectin (Homo sapiens); in assay [2]; in assay [3]; in [4]; in [5]) was Active. For the same compound, the outcome in [6], in assay [7], in assay [8], in assay [9], in assay [10] and in assay [11] was Active. For the same compound, the outcome (in assay [12]; in [13]; on Moesin (Homo sapiens); in assay [14]; in assay [15]) was Active.
Turning to `C=CC(=O)Nc1ccccc1Oc1nc(Nc2cnn(CCOC)c2)ncc1Cl`, the 50% inhibitory concentration (IC50) (as a rule, the concentration that gives 50% inhibition) in [16] was 540 pM.
Regarding `C=CC(=O)Nc1ccccc1Nc1nc(Nc2ccc(N3CCN(C)CC3)cc2)ncc1Cl`, the inhibition (in general, the relative decrease from the control value, in per cent) in assay [17] came out at 2.6%.
